Measured values published in patent publication US4875922A, “Pyrimidine derivatives” (Imperial Chemical Industries PLC, priority 1986, dated 1989).

Legend:
Spring Barley = experiment: Intermediate Retardant Test, spring barley; format: in vivo, Spring Barley (Atem/kym); conditions: Hordeum vulgare, 672 h, overall spray, approximately 28 days, Table VII, read-out: Percentage Reduction in Height of Spring Barley (Compared to formulation blank)
Description: (§1) Three species are involved in this test RICE, SPRING-BARLEY and APPLES. The variety and growth stages at spray are outlined in Table V. Compounds were applied at 500 ppm and 2000 ppm respectively (0.5 kg and 2 kg/ha^-1 at a field volume of 1000 l/ha^-1) as an overall spray except in the case of certain tests on APPLES. This gives a foliar and root component in the test, i.e., this test will detect the activity of both root and foliar acting compounds. The intermediate retardant test on APPLES of which the results are given in Table IX was different, in that a foliar (only) spray at 2000 ppm was compared with a root drench, also at 2000 ppm. The rice was grown in 4" `paddy` pots, i.e., the roots and bottom of the stems are immersed in water under conditions corresponding to those in paddy fields. Spring barley and apples were grown in 4" pots. The plants were assessed for height to top-most ligule at approximately 28 days after treatment for spring barley and rice and for height to apex at approximately 28 days after the treatment for apples. In each case the result for the 500 ppm and 2000 ppm test for each compound is compared to the height of the formulation blank in that test, presented as a percentage reduction in height compared to the formulation blank.
(§2) The prior art compound was compared with compounds of the present invention in side-by-side comparisons using the Intermediate Retardant Test described in Example 62, and the results are given in Tables X to XII where `A` is the prior art compound, 2-methyl-1-isopropyl-1-(pyrimidin-5-yl)-propan-1-ol).

Rice [1] = experiment: Intermediate Retardant Test, rice; format: in vivo, Rice (Ishikari); conditions: Oryza sativa, 672 h, overall spray, approximately 28 days, Table VI, read-out: Percentage Reduction in Height of Rice (Compared to formulation blank)
Description: as §1, §2

Tomato = experiment: Whole plant screen for plant growth regulator activity, tomato (TO); format: in vivo, Tomato (Ailsa Craig); conditions: 4000 ppm (4 kg/ha), visual score after 2-6 weeks
Protocol: (§3) The plant species used in this screen are presented in Table II with the leaf stage at which they were sprayed. Each chemical was applied at 4000 ppm (4 kg/ha in a 1000 l/ha field volume) using a tracksprayer and a SS8004E (Teejet) nozzle.
(§4) After spray the plants were grown in a glasshouse with 25° C. day/22° C. night temperatures and supplementary lighting was supplied when necessary (from mercury vapour lamps), to provide a 16 hour photoperiod. The exception to this were the temperate cereals, wheat and barley which were grown in 16° C. day/13° C. night temperatures.
(§5) After 2-6 weeks in the glasshouse, depending on the time of year, the plants were visually assessed for morphological characteristics. Formulation blanks were used as controls to assess the plants.
(§6) Additional compounds in Table I were tested for plant growth regulator activity using the method of Example 60 except that Tomato was included in the test as an additional species. Tomato, Ailsa Craig, was grown in a single 3 inch pot in peat and treated at the 2 to 21/2 leaves growth stage. The results were presented in Table IV in which Tomato is indicated by the code TO and the Key is otherwise as for Table III.
An astrisk (*) after a score under "T" (tillering) indicated a decrease in tillering.

Wheat = experiment: Whole plant screen for plant growth regulator activity, wheat (WW); format: in vivo, Wheat (Timmo); conditions: WW, 4000 ppm (4 kg/ha), visual score after 2-6 weeks; for T = Tillering or side shooting: * = decrease in tillering
Protocol: (§7) Compounds 1 to 3 in Table 1 were tested for plant growth regulator activity against five species for various growth effects relevant to plant growth regulation.
as §3, §4, §5, §6

Barley = experiment: Whole plant screen for plant growth regulator activity, barley (BR); format: in vivo, Barley (Atem); conditions: BR, 4000 ppm (4 kg/ha), visual score after 2-6 weeks; for T = Tillering or side shooting: * = decrease in tillering
Protocol: as §7, §3, §4, §5, §6

Apples = experiment: Intermediate Retardant Test, apples, foliar spray compared with root drench; format: in vivo, Apples (Red Delicious); conditions: 672 h, approximately 28 days, Table IX, read-out: Percentage Reduction in Height of Apples (Compared to formulation blank); for percent reduction in plant height at 2000 ppm: 2000 ppm (Foliar); for percent reduction in plant height at 2000 µg/mL: soil, 2000 pmm (Root), root drench
Description: as §1, §2

Maize = experiment: Whole plant screen for plant growth regulator activity, maize (MZ); format: in vivo, Maize (Earliking); conditions: 4000 ppm (4 kg/ha), visual score after 2-6 weeks
Protocol: as §7, §3, §4
After 2-6 weeks in the glasshouse, depending on the time of year, the plants were visually assessed for morphological characteristics. Formulation blanks were used as controls to assess the plants. […]

Apple = experiment: Whole plant screen for plant growth regulator activity, apple (AP); format: in vivo, Apple (Red Delicious); conditions: 4000 ppm (4 kg/ha), visual score after 2-6 weeks
Protocol: as §7, §3, §4, §5, §6

Rice [2] = experiment: Whole plant screen for plant growth regulator activity, rice (RC); format: in vivo, Rice (Ishikari); conditions: 4000 ppm (4 kg/ha), visual score after 2-6 weeks
Protocol: as §7, §3, §4, §5, §6

Row | Compound | percent reduction in plant height at 500 ppm (Spring Barley) [%] | percent reduction in plant height at 2000 ppm (Spring Barley) [%] | Percent reduction in rice height vs formulation blank at 500 ppm (Rice [1]) [%] | Percent reduction in rice height vs formulation blank at 2000 ppm (Rice [1]) [%] | G = Greening effect (Tomato) | I = Interligular or internodal length reduction (Tomato) | R = Retardation (Tomato) | I = Interligular or internodal length reduction (Wheat) | R = Retardation (Wheat) | T = Tillering or side shooting (Wheat) | G = Greening effect (Barley) | I = Interligular or internodal length reduction (Barley) | R = Retardation (Barley) | T = Tillering or side shooting (Barley) | percent reduction in plant height at 2000 ppm (Apples) [%] | percent reduction in plant height at 2000 µg/mL (Apples) [%] | G = Greening effect (Apple) | I = Interligular or internodal length reduction (Apple) | R = Retardation (Apple) | I = Interligular or internodal length reduction (Rice [2]) | further results
1 | CC(C)C(O)(C#CCCCCl)c1cncnc1 (centres unmarked) [Compound 8, 2-Methyl-1-(5-chloropen-1-yne)-1-(pyrimidin-5-yl)-propan-1-ol] | 31 | 63 | 43 | 54 | 2 (31-60%) | 3 (61-100%) | 3 (61-100%) | 3 (61-100%) | 3 (61-100%) | 3 (61-100%) | 2 (31-60%) | 2 (31-60%) | 3 (61-100%) | 1 (10-30%) | 6 | 49.3 | 2 (31-60%) | 3 (61-100%) | 3 (61-100%) |  | G = Greening effect (Wheat): 2 (31-60%); G = Greening effect (Maize): 1 (10-30%); I = Interligular or internodal length reduction (Maize): 3 (61-100%); R = Retardation (Maize): 3 (61-100%); T = Tillering or side shooting (Maize; * = decrease in tillering): 1 (10-30%)
2 | CCC(C)CCC(O)(c1cncnc1)C(C)C (centres unmarked) [Compound 6, 2-Methyl-1-(3-methylpentyl)-1-(pyrimidin-5-yl)propan-1-ol] | 22 | 57 | 26 | 50 | 2 (31-60%) | 2 (31-60%) | 2 (31-60%) | 3 (61-100%) | 3 (61-100%) | 1 (10-30%) | 1 (10-30%) | 3 (61-100%) | 2 (31-60%) |  | 18.8 | 72.1 |  |  |  | 2 (31-60%) | R = Retardation (Rice [2]): 2 (31-60%); G = Greening effect (Maize): 1 (10-30%); I = Interligular or internodal length reduction (Maize): 2 (31-60%); R = Retardation (Maize): 2 (31-60%)
3 | CC(C)C#CC(O)(c1cncnc1)C(C)C (centres unmarked) [Compound 9, 2-Methyl-1-(3-methylbut-1-yne)-1-(pyrimidin-5-yl)propan-1-ol] | 20 | 49 | 11 | 18 | 1 (10-30%) | 1 (10-30%) | 1 (10-30%) | 3 (61-100%) | 2 (31-60%) | 2 (31-60%) | 2 (31-60%) | 3 (61-100%) | 2 (31-60%) | 2 (31-60%) | 0 | 63 | 1 (10-30%) | 3 (61-100%) | 3 (61-100%) | 1 (10-30%) | A = Apical damage (Rice [2]): 1 (10-30%); G = Greening effect (Rice [2]): 1 (10-30%); R = Retardation (Rice [2]): 1 (10-30%); G = Greening effect (Wheat): 2 (31-60%)
4 | CC(C)CCCC(O)(c1cncnc1)C(C)(C)C (centres unmarked) [Compound 17, 2,2-Dimethyl-1-(4-methylpentyl)-1-(pyrimidin-5-yl)-propan-1-ol] | 2 | 28 | 7 | 10 | 1 (10-30%) | 1 (10-30%) | 1 (10-30%) | 3 (61-100%) | 2 (31-60%) | 2 (31-60%) | 2 (31-60%) | 3 (61-100%) | 2 (31-60%) | 2 (31-60%) | 17 | 66 | 1 (10-30%) | 3 (61-100%) | 3 (61-100%) | 2 (31-60%) | G = Greening effect (Rice [2]): 1 (10-30%); R = Retardation (Rice [2]): 2 (31-60%); T = Tillering or side shooting (Rice [2]; * = decrease in tillering): 1 (10-30%); G = Greening effect (Wheat): 2 (31-60%)
5 | CC(C)CCC(O)(c1cncnc1)C(C)C (centres unmarked) [Compound 13, 2-Methyl-1-(3-methylbutyl)-1-(pyrimidin-5-yl)-propan-1-ol] | 2 | 11 | 8 | 9 |  | 2 (31-60%) | 2 (31-60%) | 3 (61-100%) | 2 (31-60%) | 1 (10-30%) | 2 (31-60%) | 3 (61-100%) | 2 (31-60%) | 2 (31-60%) | 7 | 70 | 2 (31-60%) | 3 (61-100%) | 3 (61-100%) | 2 (31-60%) | G = Greening effect (Rice [2]): 1 (10-30%); R = Retardation (Rice [2]): 2 (31-60%)
